{"source": "patent US20210177743A1", "about": "“Self-Assembling Multi-Domain Peptide Based Hydrogels” (New Jersey Institute of Technology, priority 2018, published 2021)", "origin": "cited, not measured here", "tested_on": "hepatocytes with low LDL receptors due to PCSK9", "data": [{"sequence": "TVFTSWEEYLDWV [Pep2-8]", "values": [{"measurement": "LDL receptors on the cell surface", "value": "restore the receptors to the cell surface"}]}]}
